Assay results published in patent US20050112573A1, “Method of detecting toxic substance” (priority 2001, published 2005).

System: yeast genes (level of expressed mRNA)
Assay: DNA chip analysis of expressed mRNA of yeast genes after 2 h culture with a toxic chemical substance
Type: cell-based, Saccharomyces cerevisiae S288C
How it was run: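 Values are treated-to-control fluorescence ratios from a whole-yeast-genome DNA chip (65° C, over 12 h hybridization) using Cy3/Cy5-labelled cDNA from mRNA. Log-phase S288C cells in YPD at 25° C were exposed 2 h to a toxicant at sublethal, growth-inhibiting concentration.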

CdCl2 [(2)]
The level of expressed mRNA in the presence of chemical substance/ (yeast gene YKL086W, ratio to control without chemical): 1.1 | The level of expressed mRNA in the presence of chemical substance/The level of expressed mRNA in the absence of chemical substance (yeast gene YKL096W): 0.6 | The level of expressed mRNA in the presence of chemical substance/ (yeast gene YKL151C, ratio to control without chemical substance, 2 h culture): 3.1 | The level of expressed mRNA in the presence of chemical substance/ (yeast gene YKL153W, ratio to control without chemical substance, 2 h culture): 1.4 | The level of expressed mRNA in the presence of chemical substance/The level of expressed mRNA in the absence of chemical substance (yeast gene YKL165C): 2.0 | The level of expressed mRNA in the presence of chemical substance/The level of expressed mRNA in the absence of chemical substance (yeast gene YKL193C): 0.8 | The level of expressed mRNA in the presence of chemical substance/ (yeast gene YKL195W, ratio to control without chemical substance, 2 h culture): 0.5 | The level of expressed mRNA in the presence of chemical substance/in the absence of chemical substance (yeast gene YKR009C): 1.2 | The level of expressed mRNA in the presence of chemical substance/ (yeast gene YKR091W, ratio to control without chemical): 2.3 | The level of expressed mRNA in the presence of chemical substance/ (yeast gene YLR054C, ratio to control without chemical substance, 2 h culture): 1.5 | The level of expressed mRNA in the presence of chemical substance/The level of expressed mRNA in the absence of chemical substance (yeast gene YLR120C): 1.9 | The level of expressed mRNA in the presence of chemical substance/The level of expressed mRNA in the absence of chemical substance (yeast gene YLR136C): 9.0 | The level of expressed mRNA in the presence of chemical substance/ (yeast gene YLR149C, ratio to control without chemical substance, 2 h culture): 1.9 | The level of expressed mRNA in the presence of chemical substance/ (yeast gene YLR152C, ratio to control without chemical substance, 2 h culture): 1.3 | The level of expressed mRNA in the presence of chemical substance/The level of expressed mRNA in the absence of chemical substance (yeast gene YLR178C): 6.9 | The level of expressed mRNA in the presence of chemical substance/ (yeast gene YLR194C, ratio to control without chemical): 2.2 | The level of expressed mRNA in the presence of chemical substance/The level of expressed mRNA in the absence of chemical substance (yeast gene YLR250W): 1.0 | The level of expressed mRNA in the presence of chemical substance/ (yeast gene YLR324W, ratio to control without chemical substance, 2 h culture): 1.2 | The level of expressed mRNA in the presence of chemical substance/The level of expressed mRNA in the absence of chemical substance (yeast gene YLR327C): 3.3 | The level of expressed mRNA in the presence of chemical substance/ (yeast gene YLR350W, ratio to control without chemical substance, 2 h culture): 1.9 | The level of expressed mRNA in the presence of chemical substance/in the absence of chemical substance (yeast gene YLR351C): 1.4 | The level of expressed mRNA in the presence of chemical substance/The level of expressed mRNA in the absence of chemical substance (yeast gene YLR356W): 2.9 | The level of expressed mRNA in the presence of chemical substance/The level of expressed mRNA in the absence of chemical substance (yeast gene YLR362W): 1.2 | The level of expressed mRNA in the presence of chemical substance/in the absence of chemical substance (yeast gene YLR375W): 1.5 | The level of expressed mRNA in the presence of chemical substance/ (yeast gene YLR387C, ratio to control without chemical substance, 2 h culture): 1.6 | The level of expressed mRNA in the presence of chemical substance/The level of expressed mRNA in the absence of chemical substance (yeast gene YLR391W): 0.7 | The level of expressed mRNA in the presence of chemical substance/The level of expressed mRNA in the absence of chemical substance (yeast gene YLR429W): 1.0 | The level of expressed mRNA in the presence of chemical substance/ (yeast gene YLR460C, ratio to control without chemical substance, 2 h culture): 2.1 | The level of expressed mRNA in the presence of chemical substance/ (yeast gene YML117W, ratio to control without chemical substance, 2 h culture): 2.2 | The level of expressed mRNA in the presence of chemical substance/The level of expressed mRNA in the absence of chemical substance (yeast gene YMR004W): 0.9 | The level of expressed mRNA in the presence of chemical substance/ (yeast gene YMR009W, ratio to control without chemical substance, 2 h culture): 1.9 | The level of expressed mRNA in the presence of chemical substance/ (yeast gene YMR067C, ratio to control without chemical substance, 2 h culture): 0.9 | The level of expressed mRNA in the presence of chemical substance/ (yeast gene YMR090W, ratio to control without chemical substance, 2 h culture): 9.5 | The level of expressed mRNA in the presence of chemical substance/The level of expressed mRNA in the absence of chemical substance (yeast gene YMR094W): 0.5 | The level of expressed mRNA in the presence of chemical substance/ (yeast gene YMR095C, ratio to control without chemical): 2.0 | The level of expressed mRNA in the presence of chemical substance/ (yeast gene YMR097C, ratio to control without chemical substance, 2 h culture): 1.0 | The level of expressed mRNA in the presence of chemical substance/ (yeast gene YMR102C, ratio to control without chemical substance, 2 h culture): 2.9 | The level of expressed mRNA in the presence of chemical substance/The level of expressed mRNA in the absence of chemical substance (yeast gene YMR104C): 14.3 | The level of expressed mRNA in the presence of chemical substance/ (yeast gene YMR107W, ratio to control without chemical substance, 2 h culture): 3.9 | The level of expressed mRNA in the presence of chemical substance/ (yeast gene YMR180C, ratio to control without chemical substance, 2 h culture): 0.9 | The level of expressed mRNA in the presence of chemical substance/ (yeast gene YMR184W, ratio to control without chemical substance, 2 h culture): 5.4 | The level of expressed mRNA in the presence of chemical substance/ (yeast gene YMR191W, ratio to control without chemical substance, 2 h culture): 2.4 | The level of expressed mRNA in the presence of chemical substance/The level of expressed mRNA in the absence of chemical substance (yeast gene YMR219W): 1.1 | The level of expressed mRNA in the presence of chemical substance/The level of expressed mRNA in the absence of chemical substance (yeast gene YMR226C): 1.8 | The level of expressed mRNA in the presence of chemical substance/in the absence of chemical substance (yeast gene YMR267W): 1.8 | The level of expressed mRNA in the presence of chemical substance/The level of expressed mRNA in the absence of chemical substance (yeast gene YMR275C): 0.7 | The level of expressed mRNA in the presence of chemical substance/The level of expressed mRNA in the absence of chemical substance (yeast gene YMR276W): 1.4 | The level of expressed mRNA in the presence of chemical substance/in the absence of chemical substance (yeast gene YMR278W): 1.7 | The level of expressed mRNA in the presence of chemical substance/in the absence of chemical substance (yeast gene YMR293C): 1.5 | The level of expressed mRNA in the presence of chemical substance/ (yeast gene YMR295C, ratio to control without chemical substance, 2 h culture): 1.0 | The level of expressed mRNA in the presence of chemical substance/The level of expressed mRNA in the absence of chemical substance (yeast gene YMR314W): 1.2 | The level of expressed mRNA in the presence of chemical substance/ (yeast gene YMR316W, ratio to control without chemical substance, 2 h culture): 2.9 | The level of expressed mRNA in the presence of chemical substance/The level of expressed mRNA in the absence of chemical substance (yeast gene YNL006W): 2.1 | The level of expressed mRNA in the presence of chemical substance/The level of expressed mRNA in the absence of chemical substance (yeast gene YNL007C): 2.4 | The level of expressed mRNA in the presence of chemical substance/ (yeast gene YNL044W, ratio to control without chemical substance, 2 h culture): 0.9
